Consider one molecule from patent publication EP3692978A1, “NOVEL METHOD” (DSM IP Assets B.V., priority 2019, dated 2020).

Where two headings read alike, the source gives them in different places. Where a SMILES comes first, the peptide text is derived from it. [ ]: non-standard residue; d: D form. The star is where a group is joined. Bz = O=C(c1ccccc1)*; NPr2 = CCCN(CCC)*

This assay has as its system human hair follicles. In kind it is cell-based. As to conditions: hair shaft elongation after 4 days versus vehicle (DMSO) control. From the text: Microdissection of human hair follicles: Human scalp skin samples containing mainly anagen VI hair follicles were obtained from elective face-lift plastic surgery. Informed consent was obtained. Hair follicles were truncated below the dermis, while the remaining hair bulb was separated from the dermal/subcutaneous tissue and placed in appropriate culture medium. Before the experiment, each hair follicle underwent a stringent selection, that is operated by controlling the hair shaft elongation following 18 hrs of organ culture, as well as the general organ morphology. Only the hair follicles that grew at least 0.19 ± 0.02 mm/18 hrs were used for the experiment.
Treatment: The hair growth inhibition of Bz-Gly-His-D-Phe-Arg-D-Trp-N(Pr)2 *2MSA in the concentrations as indicated in table 2 was assessed versus control, i.e. versus a treatment with the vehicle (i.e. DMSO) alone. Evaluation of hair growth inhibition: pictures of the hair follicles in culture were taken at baseline and after 4 days and the hair shaft elongation was measured to determine the hair growth. Table 2: Results

With `CCCN(CCC)C(=O)[C@@H](Cc1c[nH]c2ccccc12)NC(=O)[C@H](CCCNC(=N)N)NC(=O)[C@@H](Cc1ccccc1)NC(=O)[C@H](Cc1c[nH]cn1)NC(=O)CNC(=O)c1ccccc1` [Bz-Gly-His-D-Phe-Arg-D-Trp-N(Pr)2 *2MSA] (Bz-GH[dF]R[dW]-NPr2), the “% hair growth inhibition” value (1 nM, p = 0.067 (paired t-test)) was 12% and the “% hair growth inhibition” value (100 nM, p = 0.019 (paired t-test)) amounted to 29%.
